{"source": "the supplement of paper PMC10331698", "key": {"[1]": {"compound": "T1, C=CC(=O)OCC(F)(F)C(F)(F)C(F)(F)COC(=O)C=C [1H,1H,5H,5H-Perfluoro-1,5-pentanediol diacrylate]", "assay": "LOEC (log10 uM (lowest observed effect concentration))", "procedure": "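BioMAP Diversity Plus panel in human primary cell co-cultures, 4 concentrations in duplicate blinded samples. Responses are log10 fold change versus DMSO control, processed with tcpl v2.1.0. A hit is called when responses at any concentration exceed the cutoff (the larger of 3*bmad or log10(1.2)); the lowest observed effect concentration (modl_ga, log10 uM) is reported for hits.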"}, "Heptafluorobutyl iodide": {"compound": "FC(F)(F)C(F)(F)C(F)(F)CI [Heptafluorobutyl iodide]", "assay": "level (log10 ratio to DMSO vehicle control); higher = higher biomarker level / cell amount than vehicle control", "conditions": "in DMSO", "procedure": "(§1)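 BioMAP Diversity Plus panel of 12 human primary cell co-culture systems (3C, 4H, LPS, SAg, BT, BF4T, BE3C, CASM3C, HDF3CGF, KF3CT, MyoF, Mphg). Compounds were added 1 h before stimulation and left for 24 h (MyoF 48 h; BT 72 h for soluble read-outs or 6 d for IgG). Biomarkers were read by ELISA, cytotoxicity by SRB, PBMC viability and proliferation by Alamar Blue. Each well value was divided by the mean of 8 DMSO control wells on the same plate and log10 transformed; duplicate blinded samples were tested at 4 concentrations.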"}, "[2]": {"compound": "O=S(=O)(O)C(F)(F)C(F)(F)C(F)(F)C(F)(F)C(F)(F)C(F)(F)C(F)(F)C(F)(F)C(F)(F)C(F)(F)F [Sodium perfluorodecanesulfonate]", "assay": "level (log10 ratio to DMSO vehicle control); higher = higher biomarker level / cell amount than vehicle control", "conditions": "in DMSO", "procedure": "as §1"}, "Octafluoroadipamide": {"compound": "NC(=O)C(F)(F)C(F)(F)C(F)(F)C(F)(F)C(N)=O [Octafluoroadipamide]", "assay": "level (log10 ratio to DMSO vehicle control); higher = higher biomarker level / cell amount than vehicle control", "conditions": "in DMSO", "procedure": "as §1"}, "[3]": {"compound": "O=S(=O)(O)CCC(F)(F)C(F)(F)C(F)(F)C(F)(F)C(F)(F)C(F)(F)F [6:2 Fluorotelomer sulfonic acid]", "assay": "level (log10 ratio to DMSO vehicle control); higher = higher biomarker level / cell amount than vehicle control", "conditions": "in DMSO", "procedure": "as §1"}, "[4]": {"compound": "COC(=O)C(F)(F)C(F)(F)OC(F)(C(F)(F)F)C(F)(F)OC(F)=C(F)F [Methyl perfluoro(3-(1-ethenyloxypropan-2-yloxy)propanoate)]", "assay": "level (log10 ratio to DMSO vehicle control); higher = higher biomarker level / cell amount than vehicle control", "conditions": "in DMSO", "procedure": "as §1"}, "[5]": {"compound": "NC(=O)C(F)(F)C(F)(F)C(F)(F)C(F)F", "assay": "level (log10 ratio to DMSO vehicle control); higher = higher biomarker level / cell amount than vehicle control", "conditions": "in DMSO", "procedure": "as §1"}, "[6]": {"compound": "T1, 1H,1H,5H,5H-Perfluoro-1,5-pentanediol diacrylate", "assay": "level (log10 ratio to DMSO vehicle control); higher = higher biomarker level / cell amount than vehicle control", "conditions": "6700 nM; in DMSO", "procedure": "as §1"}, "[7]": {"compound": "NS(=O)(=O)C(F)(F)C(F)(F)C(F)(F)C(F)(F)C(F)(F)C(F)(F)F [Perfluorohexanesulfonamide]", "assay": "level (log10 ratio to DMSO vehicle control); higher = higher biomarker level / cell amount than vehicle control", "conditions": "in DMSO", "procedure": "as §1"}, "[8]": {"compound": "O=C(O)C=CC(F)(C(F)(F)F)C(F)(F)F [3-(Perfluoroisopropyl)-2-propenoic acid]", "assay": "level (log10 ratio to DMSO vehicle control); higher = higher biomarker level / cell amount than vehicle control", "conditions": "in DMSO", "procedure": "as §1"}, "Hexafluoroamylene glycol": {"compound": "OCC(F)(F)C(F)(F)C(F)(F)CO [Hexafluoroamylene glycol]", "assay": "level (log10 ratio to DMSO vehicle control); higher = higher biomarker level / cell amount than vehicle control", "conditions": "in DMSO", "procedure": "as §1"}, "[9]": {"compound": "FC(F)(F)C(F)(F)C(F)(F)C(F)(F)C(F)(F)C(F)(F)CC1CO1 [3-(Perfluorohexyl)-1,2-epoxypropane]", "assay": "level (log10 ratio to DMSO vehicle control); higher = higher biomarker level / cell amount than vehicle control", "conditions": "in DMSO", "procedure": "as §1"}, "[10]": {"compound": "O=S(=O)(Cl)C(F)(F)C(F)(F)C(F)(F)C(F)(F)C(F)(F)C(F)(F)C(F)(F)C(F)(F)F [Perfluoro-1-octanesulfonyl chloride]", "assay": "level (log10 ratio to DMSO vehicle control); higher = higher biomarker level / cell amount than vehicle control", "conditions": "in DMSO", "procedure": "as §1"}, "[11]": {"compound": "FC(F)(F)C(F)(F)C(F)(F)CC1CO1 [1H,1H-Heptafluorobutyl epoxide]", "assay": "level (log10 ratio to DMSO vehicle control); higher = higher biomarker level / cell amount than vehicle control", "conditions": "in DMSO", "procedure": "as §1"}, "[12]": {"compound": "C=C(C)C(=O)OCCC(F)(F)C(F)(F)C(F)(F)C(F)(F)C(F)(F)C(F)(F)F [6:2 Fluorotelomer methacrylate]", "assay": "level (log10 ratio to DMSO vehicle control); higher = higher biomarker level / cell amount than vehicle control", "conditions": "in DMSO", "procedure": "as §1"}, "[13]": {"compound": "FC(F)(F)C(F)(F)CNCC(F)(F)C(F)(F)F [Bis(1H,1H-perfluoropropyl)amine]", "assay": "level (log10 ratio to DMSO vehicle control); higher = higher biomarker level / cell amount than vehicle control", "conditions": "in DMSO", "procedure": "as §1"}, "Nonafluoropentanamide": {"compound": "NC(=O)C(F)(F)C(F)(F)C(F)(F)C(F)(F)F [Nonafluoropentanamide]", "assay": "level (log10 ratio to DMSO vehicle control); higher = higher biomarker level / cell amount than vehicle control", "conditions": "in DMSO", "procedure": "as §1"}, "[14]": {"compound": "O=C(O)C(F)(F)C(F)(F)C(F)(F)C(F)(F)C(F)(F)C(F)(F)C(F)(F)C(F)(F)C(F)(F)C(F)F [11-H-Perfluoroundecanoic acid]", "assay": "level (log10 ratio to DMSO vehicle control); higher = higher biomarker level / cell amount than vehicle control", "conditions": "in DMSO", "procedure": "as §1"}, "[15]": {"compound": "O=S(=O)(F)C(F)(F)C(F)(F)C(F)(F)C(F)(F)C(F)(F)C(F)(F)C(F)(F)C(F)(F)F [Perfluorooctanesulfonyl fluoride]", "assay": "level (log10 ratio to DMSO vehicle control); higher = higher biomarker level / cell amount than vehicle control", "conditions": "in DMSO", "procedure": "as §1"}, "[16]": {"compound": "FC(F)(F)C(F)(F)C(F)(F)C(F)(F)C(F)(F)C(F)(F)C(F)(F)I [1-Iodopentadecafluoroheptane]", "assay": "level (log10 ratio to DMSO vehicle control); higher = higher biomarker level / cell amount than vehicle control", "conditions": "in DMSO", "procedure": "as §1"}}, "note": "± gives the standard deviation of the averaged measurements.", "data": [{"test system": "3C VCAM1 down", "values": [{"measurement": "LOEC (log10 uM)", "setting": "[1]", "value": 0.845}]}, {"test system": "LPS IL8 down", "values": [{"measurement": "LOEC (log10 uM)", "setting": "[1]", "value": 1.3}]}, {"test system": "LPS:CD142/Tissue Factor", "values": [{"measurement": "level (log10)", "setting": "Heptafluorobutyl iodide; 6700 nM", "value": "-0.046 ± 0.1"}, {"measurement": "level (log10)", "setting": "Heptafluorobutyl iodide; 20000 nM", "value": "-0.013 ± 0.082"}, {"measurement": "level (log10)", "setting": "Heptafluorobutyl iodide; 60000 nM", "value": "0.0295 ± 0.043"}, {"measurement": "level (log10)", "setting": "[2]; 1500 nM", "value": "-0.0155 ± 0.043"}, {"measurement": "level (log10)", "setting": "[2]; 4400 nM", "value": "-0.011 ± 0.021"}, {"measurement": "level (log10)", "setting": "[2]; 13000 nM", "value": "-0.06 ± 0.0042"}, {"measurement": "level (log10)", "setting": "[2]; 40000 nM", "value": "-0.177 ± 0.1"}, {"measurement": "level (log10)", "setting": "Octafluoroadipamide; 6700 nM", "value": "-0.0225 ± 0.077"}, {"measurement": "level (log10)", "setting": "Octafluoroadipamide; 20000 nM", "value": "-0.004 ± 0.025"}, {"measurement": "level (log10)", "setting": "Octafluoroadipamide; 60000 nM", "value": "0.057 ± 0.025"}, {"measurement": "level (log10)", "setting": "[3]; 6700 nM", "value": "-0.0015 ± 0.064"}, {"measurement": "level (log10)", "setting": "[3]; 20000 nM", "value": "0.02 ± 0.0085"}, {"measurement": "level (log10)", "setting": "[3]; 60000 nM", "value": "0.0275 ± 0.026"}, {"measurement": "level (log10)", "setting": "[4]; 6700 nM", "value": "-0.0235 ± 0.00071"}, {"measurement": "level (log10)", "setting": "[4]; 20000 nM", "value": "0.009 ± 0.011"}, {"measurement": "level (log10)", "setting": "[5]; 6700 nM", "value": "-0.0215 ± 0.00071"}, {"measurement": "level (log10)", "setting": "[5]; 20000 nM", "value": "0.005 ± 0.0028"}, {"measurement": "level (log10)", "setting": "[5]; 60000 nM", "value": "-0.007 ± 0.0014"}, {"measurement": "level (log10)", "setting": "[6]", "value": "-0.107 ± 0.03"}, {"measurement": "level (log10)", "setting": "[7]; 6700 nM", "value": "0.0095 ± 0.025"}, {"measurement": "level (log10)", "setting": "[7]; 20000 nM", "value": "0.012 ± 0.0085"}, {"measurement": "level (log10)", "setting": "[7]; 60000 nM", "value": "0.022 ± 0.0071"}, {"measurement": "level (log10)", "setting": "[8]; 6700 nM", "value": "0.0105 ± 0.0078"}, {"measurement": "level (log10)", "setting": "[8]; 20000 nM", "value": "-0.021 ± 0.025"}, {"measurement": "level (log10)", "setting": "[8]; 60000 nM", "value": "0.006 ± 0.021"}, {"measurement": "level (log10)", "setting": "Hexafluoroamylene glycol; 6700 nM", "value": "0.0025 ± 0.087"}, {"measurement": "level (log10)", "setting": "Hexafluoroamylene glycol; 20000 nM", "value": "0.041 ± 0.081"}, {"measurement": "level (log10)", "setting": "Hexafluoroamylene glycol; 60000 nM", "value": "0.021 ± 0.082"}, {"measurement": "level (log10)", "setting": "[9]; 6700 nM", "value": "-0.023 ± 0.0057"}, {"measurement": "level (log10)", "setting": "[9]; 20000 nM", "value": "-0.0095 ± 0.032"}, {"measurement": "level (log10)", "setting": "[9]; 60000 nM", "value": "0.0015 ± 0.039"}, {"measurement": "level (log10)", "setting": "[10]; 6700 nM", "value": "-0.023 ± 0.055"}, {"measurement": "level (log10)", "setting": "[10]; 20000 nM", "value": "0.0075 ± 0.0078"}, {"measurement": "level (log10)", "setting": "[10]; 60000 nM", "value": "0.11 ± 0.0092"}, {"measurement": "level (log10)", "setting": "[11]; 6700 nM", "value": "0.011 ± 0.014"}, {"measurement": "level (log10)", "setting": "[11]; 20000 nM", "value": "0.0085 ± 0.018"}, {"measurement": "level (log10)", "setting": "[11]; 60000 nM", "value": "0.015 ± 0.0085"}, {"measurement": "level (log10)", "setting": "[12]; 6700 nM", "value": "0.007 ± 0.09"}, {"measurement": "level (log10)", "setting": "[12]; 20000 nM", "value": "0.0765 ± 0.043"}, {"measurement": "level (log10)", "setting": "[12]; 60000 nM", "value": "0.0165 ± 0.098"}, {"measurement": "level (log10)", "setting": "[13]; 6700 nM", "value": "0.019 ± 0.073"}, {"measurement": "level (log10)", "setting": "[13]; 20000 nM", "value": "-0.007 ± 0.099"}, {"measurement": "level (log10)", "setting": "[13]; 60000 nM", "value": "0.0095 ± 0.13"}, {"measurement": "level (log10)", "setting": "Nonafluoropentanamide; 6700 nM", "value": "0.0085 ± 0.019"}, {"measurement": "level (log10)", "setting": "Nonafluoropentanamide; 20000 nM", "value": "0.0165 ± 0.0078"}, {"measurement": "level (log10)", "setting": "Nonafluoropentanamide; 60000 nM", "value": "-0.013 ± 0.017"}, {"measurement": "level (log10)", "setting": "[14]; 6700 nM", "value": "0.012 ± 0.034"}, {"measurement": "level (log10)", "setting": "[14]; 20000 nM", "value": "-0.033 ± 0.041"}, {"measurement": "level (log10)", "setting": "[15]; 6700 nM", "value": "-0.0015 ± 0.0064"}, {"measurement": "level (log10)", "setting": "[15]; 20000 nM", "value": "0.018 ± 0.011"}, {"measurement": "level (log10)", "setting": "[15]; 60000 nM", "value": "-0.0065 ± 0.019"}, {"measurement": "level (log10)", "setting": "[16]; 6700 nM", "value": "0.0105 ± 0.07"}, {"measurement": "level (log10)", "setting": "[16]; 20000 nM", "value": "0.036 ± 0.02"}]}]}
